Measurements reported in US20230293409A1, “Compositions Comprising Antimicrobials and (Bio)-Alkanediols for Skin Protection” (Symrise AG, priority 2020, published 2023).
In brackets after ≈: the same amount, converted by molar mass. Where two headings read alike, the source gives them in different places. One block for each compound: values may come before it.

Key:
[1] = Maximum solubility of alkanediols in water; format: physicochemical; settings: ambient temperature after 24 h storage at 5° C.; visual observation
[2] = system: human sebaceous glands; assay: Sebum control: micro-dissected cultured sebaceous glands, lipids normalized upon proteins; format: cell-based; settings: for sebum reduction: human sebaceous glands cultured six days, compared to untreated control, FIG. 2, single donor
Procedure: Additional tests were performed with human sebaceous glands in order to verify the modulatory activity of different 1,2-alkanediols on sebum secretion. Several microbial species on the skin are lipid dependent and feed on the human sebum (e.g., Corynebacterium, Propionibacterium). Accordingly, sebum reduction can indirectly support the reduction of microorganisms on the skin and in this way also indirectly support e.g., dandruff or acne reduction. For these experiments sebaceous glands had been micro-dissected and cultured with medium. The medium without any supplement served as untreated control. The medium with 5 μM Capsaicin served as positive control. Additionally, the culture medium was supplemented with different concentrations of alkanediols. After six days the sebaceous glands were collected and lipids and proteins quantified. The total lipid amount being representative of sebum production was obtained by normalizing the quantified lipids upon the quantified proteins (i.e., mg of lipids/mg of proteins).

[3] = system: Staphylococcus aureus; assay: Minimum Inhibitory Concentration (MIC) test and Kull synergy index; format: cell-based
[4] = system: Propionibacterium acnes; assay: Minimum Inhibitory Concentration (MIC) test; format: cell-based; settings: Cutibacterium acnes, single substance (Tables 1, 2)
Procedure: (§1) The Minimum Inhibitory Concentration (MIC) test is a test on growth inhibition. The estimation of MICs is executed in 96 well plates. Through the comparison of bacterial growth with positive and negative controls via optical density (OD), different concentrations of given test substances are evaluated. Bacteria were cultivated under adjusted conditions based on information of the German Collection of Microorganisms and Cell Cultures (DSMZ) and stored in 50% glycerol prior to use. Afterwards, the following method was applied: Growth medium (according to microorganism) was added to each well of the microplate. Then, the test-substances were added in different concentrations, positive controls (water controls only with medium) and negative controls (benchmarks according to organism). Finally, the microorganisms were added in a concentration of 10^6 CFU/ml (CFU=colony forming units). The incubation of the microplates was carried out at appropriate conditions. According to the resulting growth, substance concentrations are labelled either as inhibiting or not and MIC is defined as the lowest concentration where a complete growth inhibition is visible. Experiments at concentration limits (highest concentration labelled as growth and lowest concentration labelled as inhibiting) are performed at least twice.

[5] = system: Escherichia coli; assay: Minimum Inhibitory Concentration (MIC) test; format: cell-based; settings: single substance (Tables 1, 2)
Procedure: as §1

[6] = system: Corynebacterium jeikeium; assay: Minimum Inhibitory Concentration (MIC) test; format: cell-based; settings: single substance (Tables 1, 2)
Procedure: as §1

[7] = system: Candida albicans; assay: Minimum Inhibitory Concentration (MIC) test; format: cell-based; settings: single substance (Tables 1, 2)
Procedure: as §1

[8] = system: Staphylococcus hominis; assay: Minimum Inhibitory Concentration (MIC) test; format: cell-based; settings: single substance (Tables 1, 2)
Procedure: as §1

[9] = Table 3, Component B alone, read-out: MIC Component B in ppm

SMILES: CCCCCC(O)CO (stereo not shown) [1,2-Heptanediol, 1,2-heptanediol]
Maximum solubility in water (% by weight) [1]: 2.5 % by weight
sebum reduction [2]: 20%

SMILES: CCCCC(O)CO (stereo not shown) [1,2-Hexandiol, 1,2-hexanediol]
Maximum solubility in water (% by weight) [1]: 50 % by weight

SMILES: CCCCCCCC(O)CO (stereo not shown) [1,2-Nonanediol, 1,2-nonanediol]
Maximum solubility in water (% by weight) [1]: 0.1 % by weight
MIC Component A in ppm ([3]; Table 4, Component A alone): 1000 ppm
concentration dependency of sebum reduction ([2]; different concentrations, FIG. 3, single donor different from FIG. 2): experimentally confirmed

SMILES: CCCCC(O)C(C)O (stereo not shown) [2,3-Heptanediol, 2,3-heptanediol]
Maximum solubility in water (% by weight) [1]: 3.6 % by weight

SMILES: CCCCCC(O)C(C)O (stereo not shown) [2,3-Octanediol, 2,3-octanediol]
Maximum solubility in water (% by weight) [1]: 1.5 % by weight

SMILES: OCc1ccccc1 [Benzyl Alcohol]
MIC [3, 9]: 5000 mg/L
MIC Component B in ppm ([3]; Table 4, Component B alone): 5000 ppm

SMILES: CC(C)(C)C(=O)C(Oc1ccc(Cl)cc1)n1ccnc1 (stereo not shown) [Climbazole]
MIC [3, 9]: 250 mg/L

SMILES: CCCCC(CC)COCC(O)CO (stereo not shown) [Ethylhexylglycerin]
MIC Component B in ppm ([3]; Table 3, Component B alone): 2000 ppm

SMILES: CCCCCCCC(=O)OCC(O)CO (stereo not shown) [Glyceryl caprylate]
MIC [3, 9]: 2500 mg/L

Second part, led by results:

Maximum solubility in water (% by weight) [1]: 0.5 % by weight
SMILES: CCCCCCC(O)CO (stereo not shown) [1,2-Octandiol, 1,2-octanediol]

MIC [4]: 250 mg/L (≈ 1330 µM)
MIC [5]: 250 mg/L (≈ 1330 µM)
MIC [6]: 250 mg/L (≈ 1330 µM)
MIC [7]: 64 mg/L (≈ 340 µM)
MIC [8]: 125 mg/L (≈ 664 µM)
MIC ([3]; single substance (Tables 1, 2), read-out: Minimum Inhibitory Concentration (MIC)): 125 mg/L
SMILES: CCCCCCCCCC(O)CO (stereo not shown) [1,2-Undecanediol, 1,2-undecanediol]
sebum reduction [2]: 45%

Maximum solubility in water (% by weight) [1]: 0.3 % by weight
SMILES: CCCCCCC(O)C(C)O (stereo not shown) [2,3-Nonanediol, 2,3-nonanediol]
sebum reduction [2]: 40%

MIC [3, 9]: 1000 mg/L
MIC Component B in ppm ([3]; Table 4, Component B alone): 1000 ppm
SMILES: CCCCCCCC(=O)NO [Caprylhydroxamic acid]
